From patent US20230257396A1, “MACROCYCLES AND THEIR USE” (BLOSSOMHILL THERAPEUTICS, INC., priority 2020, published 2023)
Where a chain is given by its changes, count along the chain named.

How the values were obtained:
Experiment in all cases: KINOMEscan kinase binding assay (Eurofins/DiscoveRx), % Ctrl
[1] = biological target: T1, kinases (Homo sapiens, UniProt P10721); conditions: 1 μM; for % Ctrl, KIT: target KIT; for % Ctrl, KIT-autoinhibited: target KIT-autoinhibited
T1 construct: purchased Eurofins/DiscoveRx; host or cells: E. coli BL21-derived host (T7 phage display) for most kinases; HEK-293 for the rest
Outline: (§1)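 Competition binding, 1 h RT: phage-tagged or HEK-293-expressed DNA-tagged kinase + immobilized ligand + compound. Eluate kinase by qPCR. % Ctrl = (test − positive ctrl)/(negative ctrl − positive ctrl) × 100; lower means stronger binding.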

[2] = biological target: T2, kinases (Homo sapiens, UniProt P10721, L576P); conditions: 1 μM; target KIT(L576P)
T2 construct: purchased Eurofins/DiscoveRx; host or cells: E. coli BL21-derived host (T7 phage display) for most kinases; HEK-293 for the rest
Outline: as §1

[3] = biological target: T3, kinases (Homo sapiens, UniProt P36888, N841I); conditions: 1 μM; target FLT3(N841I)
T3 construct: purchased Eurofins/DiscoveRx; host or cells: E. coli BL21-derived host (T7 phage display) for most kinases; HEK-293 for the rest
T3 sequence (P36888 27-993 N841I): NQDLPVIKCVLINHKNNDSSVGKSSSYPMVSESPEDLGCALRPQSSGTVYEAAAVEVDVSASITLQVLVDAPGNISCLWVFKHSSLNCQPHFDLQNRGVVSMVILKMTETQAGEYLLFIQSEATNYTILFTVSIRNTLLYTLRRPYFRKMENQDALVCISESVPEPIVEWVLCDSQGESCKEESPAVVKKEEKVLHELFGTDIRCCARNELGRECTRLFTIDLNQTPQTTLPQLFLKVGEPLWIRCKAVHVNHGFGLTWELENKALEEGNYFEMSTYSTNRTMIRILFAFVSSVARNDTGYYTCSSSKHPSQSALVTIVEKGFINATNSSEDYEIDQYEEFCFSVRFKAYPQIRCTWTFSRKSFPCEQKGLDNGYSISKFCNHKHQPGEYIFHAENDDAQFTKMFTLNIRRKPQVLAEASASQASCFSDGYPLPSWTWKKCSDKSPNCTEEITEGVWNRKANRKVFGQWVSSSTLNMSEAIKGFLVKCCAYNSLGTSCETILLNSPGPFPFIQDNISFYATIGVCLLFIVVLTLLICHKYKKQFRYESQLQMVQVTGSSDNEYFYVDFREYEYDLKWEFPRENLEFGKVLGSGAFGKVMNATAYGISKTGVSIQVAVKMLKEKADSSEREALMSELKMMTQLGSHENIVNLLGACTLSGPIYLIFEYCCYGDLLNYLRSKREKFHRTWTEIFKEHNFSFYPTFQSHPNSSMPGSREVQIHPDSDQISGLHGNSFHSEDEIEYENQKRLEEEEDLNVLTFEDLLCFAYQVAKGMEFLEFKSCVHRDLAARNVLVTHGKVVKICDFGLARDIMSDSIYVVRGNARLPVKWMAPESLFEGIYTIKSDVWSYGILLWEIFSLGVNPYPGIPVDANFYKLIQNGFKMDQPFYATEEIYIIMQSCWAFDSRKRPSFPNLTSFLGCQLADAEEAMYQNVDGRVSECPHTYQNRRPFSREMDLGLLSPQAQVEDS
Outline: as §1

[4] = biological target: T4, kinases (Homo sapiens, UniProt P16234); conditions: 1 μM; target PDGFRA
T4 construct: purchased Eurofins/DiscoveRx; host or cells: E. coli BL21-derived host (T7 phage display) for most kinases; HEK-293 for the rest
Outline: as §1

[5] = biological target: T5, kinases (Homo sapiens, UniProt P36888); conditions: 1 μM; for % Ctrl, FLT3: target FLT3; for % Ctrl, FLT3-autoinhibited: target FLT3-autoinhibited
T5 construct: purchased Eurofins/DiscoveRx; host or cells: E. coli BL21-derived host (T7 phage display) for most kinases; HEK-293 for the rest
T5 sequence (P36888 27-993): T3 sequence (P36888 27-993 N841I) with I815N
Outline: as §1

[6] = biological target: T6, kinases (Homo sapiens, UniProt P07949, M918T); conditions: 1 μM; target RET(M918T)
T6 construct: purchased Eurofins/DiscoveRx; host or cells: E. coli BL21-derived host (T7 phage display) for most kinases; HEK-293 for the rest
Outline: as §1

T2 sequence (P10721 26-976 L576P): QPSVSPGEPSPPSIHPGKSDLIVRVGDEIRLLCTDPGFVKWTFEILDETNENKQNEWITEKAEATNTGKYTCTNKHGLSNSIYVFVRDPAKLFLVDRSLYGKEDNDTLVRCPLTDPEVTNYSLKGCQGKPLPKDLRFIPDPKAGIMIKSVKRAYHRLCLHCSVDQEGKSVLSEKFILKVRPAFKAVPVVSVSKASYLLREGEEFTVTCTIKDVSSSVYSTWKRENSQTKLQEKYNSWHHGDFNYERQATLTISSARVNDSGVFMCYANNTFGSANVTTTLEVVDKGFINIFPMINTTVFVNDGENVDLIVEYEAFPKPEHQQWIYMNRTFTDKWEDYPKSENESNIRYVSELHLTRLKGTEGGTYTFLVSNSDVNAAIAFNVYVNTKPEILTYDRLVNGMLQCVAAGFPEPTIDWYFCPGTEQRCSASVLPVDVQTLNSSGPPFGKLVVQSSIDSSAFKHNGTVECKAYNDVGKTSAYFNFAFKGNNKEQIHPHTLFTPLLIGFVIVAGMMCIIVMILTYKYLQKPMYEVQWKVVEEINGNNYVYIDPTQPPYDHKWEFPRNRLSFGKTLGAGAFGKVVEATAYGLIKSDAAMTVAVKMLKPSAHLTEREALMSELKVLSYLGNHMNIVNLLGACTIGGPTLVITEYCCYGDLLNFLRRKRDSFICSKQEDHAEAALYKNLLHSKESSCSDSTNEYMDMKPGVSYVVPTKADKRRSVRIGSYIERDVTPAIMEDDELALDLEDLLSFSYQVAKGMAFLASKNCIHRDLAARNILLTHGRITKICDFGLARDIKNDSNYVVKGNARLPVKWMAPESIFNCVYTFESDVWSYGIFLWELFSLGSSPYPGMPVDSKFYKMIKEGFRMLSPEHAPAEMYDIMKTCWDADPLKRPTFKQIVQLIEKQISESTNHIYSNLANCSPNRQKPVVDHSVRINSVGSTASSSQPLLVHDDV
T1 sequence (P10721 26-976): as the sequence (P10721 26-976 L576P) above, with P551L counted along it
T6 sequence (P07949 29-1114 M918T): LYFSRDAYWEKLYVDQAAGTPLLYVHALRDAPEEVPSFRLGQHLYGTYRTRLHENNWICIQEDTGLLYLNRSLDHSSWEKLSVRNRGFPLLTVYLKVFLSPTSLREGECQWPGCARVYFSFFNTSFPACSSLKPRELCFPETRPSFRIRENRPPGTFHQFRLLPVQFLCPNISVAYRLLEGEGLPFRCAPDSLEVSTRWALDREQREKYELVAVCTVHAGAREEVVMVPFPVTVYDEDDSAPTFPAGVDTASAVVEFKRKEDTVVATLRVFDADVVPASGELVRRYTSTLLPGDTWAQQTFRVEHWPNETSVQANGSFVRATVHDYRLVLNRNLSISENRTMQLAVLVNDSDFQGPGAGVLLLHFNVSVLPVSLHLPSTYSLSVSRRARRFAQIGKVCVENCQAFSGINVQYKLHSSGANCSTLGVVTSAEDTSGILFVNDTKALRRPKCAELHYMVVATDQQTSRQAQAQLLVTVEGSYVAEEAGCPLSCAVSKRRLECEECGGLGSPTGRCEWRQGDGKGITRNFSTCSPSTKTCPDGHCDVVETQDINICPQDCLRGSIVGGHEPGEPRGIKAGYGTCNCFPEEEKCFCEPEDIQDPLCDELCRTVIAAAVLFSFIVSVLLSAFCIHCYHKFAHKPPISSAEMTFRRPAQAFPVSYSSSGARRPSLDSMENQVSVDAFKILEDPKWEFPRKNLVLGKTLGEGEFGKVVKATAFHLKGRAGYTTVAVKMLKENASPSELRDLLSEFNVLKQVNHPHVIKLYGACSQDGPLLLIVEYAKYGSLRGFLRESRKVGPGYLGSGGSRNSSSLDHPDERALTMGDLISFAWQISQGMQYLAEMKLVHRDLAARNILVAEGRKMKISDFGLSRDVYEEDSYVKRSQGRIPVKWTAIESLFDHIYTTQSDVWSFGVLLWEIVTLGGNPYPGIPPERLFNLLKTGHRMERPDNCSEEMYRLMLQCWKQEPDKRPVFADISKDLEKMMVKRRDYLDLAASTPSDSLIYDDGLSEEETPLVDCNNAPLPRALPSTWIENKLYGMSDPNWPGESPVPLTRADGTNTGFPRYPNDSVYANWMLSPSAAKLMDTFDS
T4 sequence (P16234 24-1089): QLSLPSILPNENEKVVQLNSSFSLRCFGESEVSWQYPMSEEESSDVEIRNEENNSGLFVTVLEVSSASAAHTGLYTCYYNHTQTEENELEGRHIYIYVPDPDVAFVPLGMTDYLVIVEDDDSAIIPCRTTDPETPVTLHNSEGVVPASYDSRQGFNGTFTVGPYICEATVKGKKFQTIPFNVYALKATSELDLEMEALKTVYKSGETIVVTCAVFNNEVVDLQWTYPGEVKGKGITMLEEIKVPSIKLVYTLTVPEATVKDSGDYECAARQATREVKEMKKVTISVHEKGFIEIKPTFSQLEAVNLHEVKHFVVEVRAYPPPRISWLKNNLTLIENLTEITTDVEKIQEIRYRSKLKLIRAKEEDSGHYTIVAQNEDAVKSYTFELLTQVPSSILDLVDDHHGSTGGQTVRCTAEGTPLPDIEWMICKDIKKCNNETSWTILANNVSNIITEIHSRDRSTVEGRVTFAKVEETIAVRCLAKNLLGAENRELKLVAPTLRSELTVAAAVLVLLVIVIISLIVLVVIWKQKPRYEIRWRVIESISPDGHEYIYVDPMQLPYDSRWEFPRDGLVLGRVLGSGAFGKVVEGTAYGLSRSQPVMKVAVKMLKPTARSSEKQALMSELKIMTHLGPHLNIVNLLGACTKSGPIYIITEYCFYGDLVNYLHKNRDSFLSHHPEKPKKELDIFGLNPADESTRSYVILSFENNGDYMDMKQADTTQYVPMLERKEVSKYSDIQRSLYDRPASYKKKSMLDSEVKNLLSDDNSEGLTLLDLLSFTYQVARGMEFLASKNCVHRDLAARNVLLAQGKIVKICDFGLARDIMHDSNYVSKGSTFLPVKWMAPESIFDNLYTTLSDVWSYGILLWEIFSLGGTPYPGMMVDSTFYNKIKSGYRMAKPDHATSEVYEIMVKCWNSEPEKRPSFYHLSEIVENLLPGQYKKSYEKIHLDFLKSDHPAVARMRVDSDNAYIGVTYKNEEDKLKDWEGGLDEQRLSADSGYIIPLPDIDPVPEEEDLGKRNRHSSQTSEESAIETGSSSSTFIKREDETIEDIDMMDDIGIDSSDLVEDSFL

% Ctrl, KIT [1] | % Ctrl, KIT-autoinhibited [1] | % Ctrl, KIT(L576P) [2] | % Ctrl, FLT3(N841I) [3] | % Ctrl, PDGFRA [4] | % Ctrl, FLT3 [5] | % Ctrl, FLT3-autoinhibited [5] | % Ctrl, RET(M918T) [6] | SMILES
100 % Ctrl | 87 % Ctrl | 34 % Ctrl | 0 % Ctrl | 50 % Ctrl | 4.2 % Ctrl | 2 % Ctrl | 2.9 % Ctrl | Cc1cc2c([nH]1)/C=C1\C(=O)Nc3ccc(cc31)-c1cnn(C)c1OCCCN(C)C2=O [Ex. 166, [3a(4)Z]-9,14-dimethyl-9,10,11,12-tetrahydro-14H-1,17-(ethanediylidene)pyrazolo[4,3-n]dipyrrolo[3,2-g:3′,4′-j][1,5]oxazacyclopentadecine-3,8(2H,5H)-dione]
7.5 % Ctrl | 25 % Ctrl | 0 % Ctrl | 0 % Ctrl | 16 % Ctrl | 1.8 % Ctrl | 12 % Ctrl | 0 % Ctrl | Cc1cc2c([nH]1)/C=C1\C(=O)Nc3cc(Cl)c(cc31)SCCOCCN(C)C2=O [Ex. 169, [16a(17)Z]-19-chloro-5-methyl-6,7,9,10-tetrahydro-1H-12,14-(ethanediylidene)dipyrrolo[3,4-g:2′,3′-j][1,4,13]oxathiazacyclopentadecine-4,16(5H,15H)-dione]
68 % Ctrl | 100 % Ctrl | 16 % Ctrl | 0 % Ctrl | 44 % Ctrl | 8.5 % Ctrl | 90 % Ctrl | 0.8 % Ctrl | Cc1cc2c([nH]1)/C=C1\C(=O)Nc3cnc(cc31)-c1cnn(C)c1CN(C)CCN(C)C2=O [Ex. 172, [3a(4)Z]-6,9,12,14-tetramethyl-9,10,11,12,13,14-hexahydro-17,1-(azenometheno)pyrazolo[4,3-m]dipyrrolo[3,2-f:3′,4′-i][1,4]diazacyclopentadecine-3,8(2H,5H)-dione]
